Data: patent US11149031B2, “Substituted N-(3-fluoropropyl)-pyrrolidine compounds, processes for their preparation and therapeutic uses thereof” (SANOFI, priority 2016, dated 2021)
Like-named read-outs stand apart in the source and are kept apart here.

Assays:
[1] = target: His6-ERα298-554 WT (ERα ligand-binding domain) (Homo sapiens (Human), UniProt P03372); experiment: Test A: biochemical antagonist activity, LanthaScreen TR-FRET ERα coactivator assay, WT; settings: read-out: Antagonism WT IC50
Chain of His6-ERα298-554 WT (ERα ligand-binding domain) (P03372 298-554): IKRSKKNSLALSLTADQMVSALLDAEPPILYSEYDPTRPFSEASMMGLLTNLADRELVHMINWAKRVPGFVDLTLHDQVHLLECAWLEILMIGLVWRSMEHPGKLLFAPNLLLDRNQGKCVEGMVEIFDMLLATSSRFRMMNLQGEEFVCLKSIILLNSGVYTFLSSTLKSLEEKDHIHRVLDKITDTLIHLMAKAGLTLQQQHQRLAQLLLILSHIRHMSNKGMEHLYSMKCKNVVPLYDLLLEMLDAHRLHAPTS
How it was run: (§1)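 His6-ERα LBD (0.5 nM) with 0.5 nM Tb-anti-His6 antibody, 250 nM PGC1a peptide and 3 nM (or 10 nM) estradiol in 100 mM potassium phosphate pH 7.4 with 5 mM DTT, incubated overnight at room temperature with compound.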

[2] = system: MCF7 cells expressing mutant estrogen receptor Asp 538 Gly; experiment: Test B: cell proliferation/viability assay (CellTiter-Glo) on MCF7 Asp 538 Gly mutant; assay type: cell-based; settings: Homo sapiens, MCF7, 168 h, MCF7 cells expressing ER Asp 538 Gly mutant, 7 days of compound exposure, read-out: proliferation MCF7 D538G IC50
How it was run: (§2)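 Mutant lines are MCF7 transfected with ER mutants and selected for estradiol-independent growth. Cells in phenol red-free MEM with 5% charcoal-stripped FBS received 9-point 1:5 dilutions (3-0.000001 μM) for 7 days; CellTiter-Glo luminescence, % viability relative to untreated after background subtraction.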

[3] = target: His6-ERα298-554 D538G mutant (ERα ligand-binding domain) (Homo sapiens (Human), UniProt P03372, D538G); experiment: Test A: biochemical antagonist activity, LanthaScreen TR-FRET ERα coactivator assay, D538G mutant; settings: read-out: Antagonism D538G IC50
Chain of His6-ERα298-554 D538G mutant (ERα ligand-binding domain) (P03372 298-554 D538G): as the sequence (P03372 298-554) above, with D241G counted along it
How it was run: as §1

ERα in MCF7 cells = ERα in MCF7 cells (Homo sapiens (Human), UniProt P03372); experiment: Test C: estrogen receptor degradation activity, ERα in cell western assay in MCF7 cells; assay type: cell-based; settings: for DC50: 4 hours post compound addition, ERα in cell western, read-out: Degradation IC50; for % Degradation at 3 μM: 4 hours, relative to fulvestrant
Chain of ERα in MCF7 cells (P03372 whole entry): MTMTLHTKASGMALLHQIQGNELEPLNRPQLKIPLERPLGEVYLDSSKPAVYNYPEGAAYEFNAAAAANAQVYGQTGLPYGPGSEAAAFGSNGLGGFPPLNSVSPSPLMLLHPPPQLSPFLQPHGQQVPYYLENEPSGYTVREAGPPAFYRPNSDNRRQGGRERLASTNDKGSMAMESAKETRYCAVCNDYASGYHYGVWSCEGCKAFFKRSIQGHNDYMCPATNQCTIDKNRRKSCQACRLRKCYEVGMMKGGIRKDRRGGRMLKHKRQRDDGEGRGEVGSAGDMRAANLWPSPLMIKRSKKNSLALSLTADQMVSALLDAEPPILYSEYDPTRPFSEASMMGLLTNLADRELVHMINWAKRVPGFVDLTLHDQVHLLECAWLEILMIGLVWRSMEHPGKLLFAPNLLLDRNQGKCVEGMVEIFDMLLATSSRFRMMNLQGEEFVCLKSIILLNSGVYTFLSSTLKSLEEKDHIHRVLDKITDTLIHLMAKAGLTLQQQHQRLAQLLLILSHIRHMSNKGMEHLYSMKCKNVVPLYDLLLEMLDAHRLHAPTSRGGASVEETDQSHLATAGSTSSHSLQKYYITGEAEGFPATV
How it was run: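 MCF7 cells in phenol-red-free medium with 5% charcoal-stripped FBS received compound (9-point 1:5, 3-0.000018 μM) for 4 h, then were fixed. ERα immunostained (Alexa 488) and normalised to DNA (Syto-64), read as integrated fluorescence on an Acumen scanner.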

[4] = system: MCF7 cells (breast tumor cells) WT; experiment: Test B: cell proliferation/viability assay (CellTiter-Glo) on MCF7 WT; assay type: cell-based; settings: Homo sapiens, MCF7, 168 h, 7 days of compound exposure
How it was run: as §2

[5] = target: His6-ERα298-554 Y537S mutant (ERα ligand-binding domain) (Homo sapiens (Human), UniProt P03372, Y537S); experiment: Test A: biochemical antagonist activity, LanthaScreen TR-FRET ERα coactivator assay, Y537S mutant; settings: read-out: Antagonism Y537S IC50
Chain of His6-ERα298-554 Y537S mutant (ERα ligand-binding domain) (P03372 298-554 Y537S): as the sequence (P03372 298-554) above, with Y240S counted along it
How it was run: as §1

[6] = system: MCF7 cells expressing mutant estrogen receptor Tyr 537 Ser; experiment: Test B: cell proliferation/viability assay (CellTiter-Glo) on MCF7 Tyr 537 Ser mutant; assay type: cell-based; settings: Homo sapiens, MCF7, 168 h, MCF7 cells expressing ER Tyr 537 Ser mutant, 7 days of compound exposure, read-out: proliferation MCF7 Y537S IC50
How it was run: as §2

[7] = asterisk (*): protocol using 10 nM estradiol

| SMILES | IC50 [1, 7] [nM] | IC50 [2] [nM] | IC50 [3, 7] [nM] | DC50 (ERα in MCF7 cells) [nM] | % Degradation at 3 μM (ERα in MCF7 cells) [%] | IC50 [4] [nM] | IC50 [5, 7] [nM] | IC50 [6] [nM] | IC50 ([1]; protocol with 3 nM estradiol) [nM] | IC50 ([3]; protocol with 3 nM estradiol) [nM] | IC50 ([5]; protocol with 3 nM estradiol) [nM] |
| --- | --- | --- | --- | --- | --- | --- | --- | --- | --- | --- | --- |
| Cc1ccc(C2=C(c3ccc(O[C@H]4CCN(CCCF)C4)cc3)c3ccc(O)cc3[S+]([O-])C2)c(F)c1 (stereo partly drawn) [Example 57, 3-(2-fluoro-4-methyl-phenyl)-4-[4-[(3S)-1-(3-fluoropropyl)pyrrolidin-3-yl]oxyphenyl]-1-oxo-2H-thiochromen-7-ol] | 1070 | > 999 | > 4000 | 3 | 89 | 33 | > 4000 | > 999 |  |  |  |
| CC1(C)Cc2cc(C3=C(c4ccc(O[C@H]5CCN(CCCF)C5)cc4)c4ccc(O)cc4SCC3)ccc2N1 [Example 198, 4-(2,2-dimethylindolin-5-yl)-5-[4-[(3S)-1-(3-fluoropropyl)pyrrolidin-3-yl]oxyphenyl]-2,3-dihydro-1-benzothiepin-8-ol] |  | 1 |  | 0.2 | 87 | 0.4 |  | 6 | 1 | 8 | 6 |
| CCOc1ccc(C2=C(c3cnc(O[C@H]4CCN(CCCF)C4)nc3)c3ccc(O)cc3SC2)c(F)n1 [Example 76, 3-(6-ethoxy-2-fluoro-3-pyridyl)-4-[2-[(3S)-1-(3-fluoropropyl)pyrrolidin-3-yl]oxypyrimidin-5-yl]-2H-thiochromen-7-ol] | 4 | 1 | 100 | 0.6 | 88 | 0.6 | 61 | 6 |  |  |  |
| Oc1ccc2c(c1)SCC(c1ccc(F)nc1F)=C2c1ccc(O[C@H]2CCN(CCCF)C2)cc1 [Example 49, 3-(2,6-difluoro-3-pyridyl)-4-[4-[(3S)-1-(3-fluoropropyl)pyrrolidin-3-yl]oxyphenyl]-2H-thiochromen-7-ol] | 37 | 0.9 | 888 | 0.2 | 89 | 0.3 | 472 | 3 |  |  |  |
| CC(C)(C)c1ccc(C2=C(c3ccc(O[C@H]4CCN(CCCF)C4)cc3)c3ccc(O)cc3SC2)c(F)n1 [Example 75, 3-(6-tert-butyl-2-fluoro-3-pyridyl)-4-[4-[(3S)-1-(3-fluoropropyl)pyrrolidin-3-yl]oxyphenyl]-2H-thiochromen-7-ol] | 2490 | 74 | > 4000 | 27 | 92 | 63 | > 4000 | > 999 |  |  |  |
| Oc1ccc2c(c1)SCCC(c1cccc3[nH]ccc13)=C2c1ccc(O[C@H]2CCN(CCCF)C2)cc1 [Example 178, 5-[4-[(3S)-1-(3-fluoropropyl)pyrrolidin-3-yl]oxyphenyl]-4-(1H-indol-4-yl)-2,3-dihydro-1-benzothiepin-8-ol] |  | 2 |  | 0.4 | 87 | 0.5 |  | 16 | 2 | 10 | 7 |
| Oc1ccc2c(c1)SCC(c1ccc(Cl)nc1Cl)=C2c1ccc(O[C@H]2CCN(CCCF)C2)cc1 [Example 50, 3-(2,6-dichloro-3-pyridyl)-4-[4-[(3S)-1-(3-fluoropropyl)pyrrolidin-3-yl]oxyphenyl]-2H-thiochromen-7-ol] | 72 | 2 | 1550 | 0.2 | 84 | 0.6 | 1170 | 7 |  |  |  |
| Oc1ccc2c(c1)OCCC(c1cccc3[nH]ccc13)=C2c1ccc(O[C@H]2CCN(CCCF)C2)cc1 [Example 110, 5-[4-[(3S)-1-(3-fluoropropyl)pyrrolidin-3-yl]oxyphenyl]-4-(1H-indol-4-yl)-2,3-dihydro-1-benzoxepin-8-ol] |  | 6 |  | 0.2 | 87 | 1 |  | 45 | 5 | 39 | 26 |
| Oc1ccc2c(c1)SCC(c1ccc(OC(F)(F)F)cc1)=C2c1ccc(O[C@H]2CCN(CCCF)C2)nc1 [Example 80, 4-[6-[(3S)-1-(3-fluoropropyl)pyrrolidin-3-yl]oxy-3-pyridyl]-3-[4-(trifluoromethoxy)phenyl]-2H-thiochromen-7-ol] | 12 | 0.4 | 283 | 0.2 | 89 | 0.3 | 154 | 3 |  |  |  |
| CCOc1ccc(C2=C(c3ccc(O[C@H]4CCN(CCCF)C4)cc3)c3ccc(O)cc3OCC2)c(F)c1 [Example 152, 4-(4-ethoxy-2-fluoro-phenyl)-5-[4-[(3S)-1-(3-fluoropropyl)pyrrolidin-3-yl]oxyphenyl]-2,3-dihydro-1-benzoxepin-8-ol] | 9 | 3 | 154 | 0.2 | 92 | 0.5 | 107 | 4 |  |  |  |
| Oc1ccc2c(c1)CCCC(c1ccc(OC(F)F)c(F)c1)=C2c1ccc(O[C@H]2CCN(CCCF)C2)nc1 [Example 241, 6-[4-(difluoromethoxy)-3-fluoro-phenyl]-5-[6-[(3S)-1-(3-fluoropropyl)pyrrolidin-3-yl]oxy-3-pyridyl]-8,9-dihydro-7H-benzo[7]annulen-2-ol] | 1 | 0.2 | 27 | 0.2 | 85 | 0.1 | 16 | 2 |  |  |  |
| Oc1ccc2c(c1)CCCC(c1ccc(OC(F)(F)F)cc1)=C2c1ccc(N[C@H]2CCN(CCCF)C2)cc1 [Example 87, 5-[4-[[(3S)-1-(3-fluoropropyl)pyrrolidin-3-yl]amino]phenyl]-6-[4-(trifluoromethoxy)phenyl]-8,9-dihydro-7H-benzo[7]annulen-2-ol] | 23 | 1 | 568 | 0.4 | 83 | 0.2 | 294 | 3 |  |  |  |
| COc1ccc(C2=C(c3ccc(O[C@H]4CCN(CCCF)C4)cc3)c3ccc(O)cc3OCC2)c(C)c1 [Example 157, 5-[4-[(3S)-1-(3-fluoropropyl)pyrrolidin-3-yl]oxyphenyl]-4-(4-methoxy-2-methyl-phenyl)-2,3-dihydro-1-benzoxepin-8-ol] | 2 | 0.6 | 56 | 0.2 | 90 | 0.2 | 36 | 4 |  |  |  |
| CC(C)(C)OC(=O)Nc1ccc(C2=C(c3ccc(O[C@H]4CCN(CCCF)C4)cc3)c3ccc(O)cc3SC2)c(F)n1 [Example 65, tert-butyl N-[6-fluoro-5-[4-[4-[(3S)-1-(3-fluoropropyl)pyrrolidin-3-yl]oxyphenyl]-7-hydroxy-2H-thiochromen-3-yl]-2-pyridyl]carbamate] | 1220 | 21 | > 4000 | 38 | 71 | 21 | > 4000 | 572 |  |  |  |
| CC(C)(C)c1ccc(C2=C(c3ccc(O[C@H]4CCN(CCCF)C4)cc3)c3cc(O)ccc3CC2)cc1 [Example 11, 7-(4-tert-butylphenyl)-8-[4-[(3S)-1-(3-fluoropropyl)pyrrolidin-3-yl]oxyphenyl]-5,6-dihydronaphthalen-2-ol] | > 4000 | 162 | > 4000 | 49 | 80 | 44 | > 4000 | > 999 |  |  |  |
| Cc1cc(C2=C(c3ccc(O[C@H]4CCN(CCCF)C4)cc3)c3ccc(O)cc3SC2)ccc1Cl [Example 17, 3-(4-chloro-3-methyl-phenyl)-4-[4-[(3S)-1-(3-fluoropropyl)pyrrolidin-3-yl]oxyphenyl]-2H-thiochromen-7-ol] |  | 1 |  | 2 | 87 | 0.4 |  | 3 | 7 | 39 | 14 |
